In ChEMBL document CHEMBL1938368, “Structure-activity relationship of naphthaldehydethiosemicarbazones in melanogenesis inhibition” (Bioorg Med Chem Lett, 2012):

Legend:
B16 [1] = assay: Antimelanogenic activity at alpha-MSH-stimulated mouse melanoma B16 cells at 10 uM after 3 days by spectrophotometry; type: functional; conditions: B16, 72 h
B16 [2] = assay: Antimelanogenic activity at alpha-MSH-stimulated mouse melanoma B16 cells after 3 days by spectrophotometry; type: functional, cell-based; conditions: B16, 72 h

Row | IC50 (B16 [2]) | Compound | inhibition at 10 µM (B16 [1])
1 | 500 nM | S=C(N/N=C/c1cccc2ccccc12)Nc1ccccc1 | > 100%
2 | 580 nM | Cc1ccc(NC(=S)N/N=C/c2cccc3ccccc23)cc1 | > 100%
3 | 450 nM | Cc1cccc(NC(=S)N/N=C/c2cccc3ccccc23)c1 | > 100%
4 | 490 nM | Cc1ccccc1NC(=S)N/N=C/c1cccc2ccccc12 | > 100%
5 | 920 nM | COc1ccccc1NC(=S)N/N=C/c1cccc2ccccc12 | > 100%

Second part, the molecule before the results:

Row | Compound | IC50 (B16 [2]) | inhibition at 10 µM (B16 [1])
6 | CNC(=S)N/N=C/c1cccc2ccccc12 | 2000 nM | > 100%
7 | CCNC(=S)N/N=C/c1cccc2ccccc12 | 1100 nM | > 100%
8 | S=C(N/N=C/c1cccc2ccccc12)Nc1ccc(Cl)cc1 | 1900 nM | > 100%
9 | COc1ccc(NC(=S)N/N=C/c2cccc3ccccc23)cc1 | 860 nM | > 100%
10 | COc1cccc(NC(=S)N/N=C/c2cccc3ccccc23)c1 | 830 nM | > 100%
11 | S=C(NCc1ccccc1)N/N=C/c1cccc2ccccc12 | 270 nM | > 100%
12 | S=C(N/N=C/c1cccc2ccccc12)NC1CCCCC1 | 290 nM | > 100%
13 | CN(C)C(=S)N/N=C/c1cccc2ccccc12 | 280 nM | > 100%
14 | CN(/N=C/c1cccc2ccccc12)C(N)=S | 1600 nM | > 100%
15 | CN(C)C(=S)N(C)/N=C/c1cccc2ccccc12 | 8600 nM | 76%
16 | NC(=O)N/N=C/c1cccc2ccccc12 | > 100000 nM | < 10%
